This passage reports T/C results from PubChem BioAssay AID292 (DTP/NCI, 2004).

For this test, the system named is B6C3F1 mice, ip Sarcoma M5076, median survival T/C. As to the kind of experiment: NCI In Vivo Anticancer Drug Screen. Data for tumor model Sarcoma M5076 (intraperitoneal) in B6C3F1 mice. As to conditions: endpoint: median survival time, higher = longer survival. The method, boiled down:
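Antitumour effect is judged in tumour-bearing mice by comparing survival after compound dosing against vehicle-only animals, reported as T/C.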

Where [1] appears, read: dose: 25.0 mg/kg/injection, schedule: Q04DX004 (ip), vehicle: Klucel (hydroxypropylcellulose) (HPC).
The mark [2] stands for this setting: dose: 50.0 mg/kg/injection, schedule: Q04DX004 (ip), vehicle: Klucel (hydroxypropylcellulose) (HPC).
The mark [3] stands for this setting: dose: 50.0 mg/kg/injection, schedule: Q04DX004 (ip), vehicle: saline with Tween-80.
Setting [4] is: dose: 100.0 mg/kg/injection, schedule: Q04DX004 (ip), vehicle: saline with Tween-80.
Where [5] appears, read: dose: 200.0 mg/kg/injection, schedule: Q04DX004 (ip), vehicle: saline with Tween-80.

“And” between values parts separate entries of the source, which are not always exact repeats. Equal entries are not always repeated. Inconclusive results and toxic doses are left out.

For `[N-]=[N+]=NCCOCn1ccc(=O)[nH]c1=O`, the T/C was 102 % of control (dose: 37.5 mg/kg/injection, schedule: Q04DX004 (ip), vehicle: suspension in saline); 107 % of control (dose: 75.0 mg/kg/injection, schedule: Q04DX004 (ip), vehicle: suspension in saline); 109 % of control (dose: 150.0 mg/kg/injection, schedule: Q04DX004 (ip), vehicle: suspension in saline); 103 % of control (dose: 300.0 mg/kg/injection, schedule: Q04DX004 (ip), vehicle: suspension in saline); 98 % of control (dose: 600.0 mg/kg/injection, schedule: Q04DX004 (ip), vehicle: suspension in saline).

Consider `CCN(CC)CCn1[nH]c2c3ccc(=O)cc3sc3c(NCCN)ccc1c32`, for which the T/C runs as follows: (dose: 3.12 mg/kg/injection, schedule: Q04DX004 (ip), vehicle: water) 194 % of control; (dose: 6.25 mg/kg/injection, schedule: Q04DX004 (ip), vehicle: water) 155 % of control and 163 % of control and 200 % of control; (dose: 12.5 mg/kg/injection, schedule: Q04DX004 (ip), vehicle: water) 178 % of control and 201 % of control and 239 % of control.

`CCC(=O)N=c1sc(SCc2ccccc2)nn1C(=O)SC` (tested in a mixture with another compound): the T/C was 101 % of control under setting [1]; 96 % of control under setting [2]; 101 % of control (dose: 100.0 mg/kg/injection, schedule: Q04DX004 (ip), vehicle: Klucel (hydroxypropylcellulose) (HPC)); 89 % of control (dose: 200.0 mg/kg/injection, schedule: Q04DX004 (ip), vehicle: Klucel (hydroxypropylcellulose) (HPC)); 86 % of control (dose: 400.0 mg/kg/injection, schedule: Q04DX004 (ip), vehicle: Klucel (hydroxypropylcellulose) (HPC)).

In the case of `O=c1oc2c(O)c(O)cc3c(=O)oc4c(O)c(O)cc1c4c23`, the T/C reads like this: (dose: 75.0 mg/kg/injection, schedule: Q04DX004 (ip), vehicle: Klucel (hydroxypropylcellulose) (HPC)) 123 % of control; (dose: 150.0 mg/kg/injection, schedule: Q04DX004 (ip), vehicle: Klucel (hydroxypropylcellulose) (HPC)) 115 % of control; (dose: 300.0 mg/kg/injection, schedule: Q04DX004 (ip), vehicle: Klucel (hydroxypropylcellulose) (HPC)) 120 % of control; (dose: 600.0 mg/kg/injection, schedule: Q04DX004 (ip), vehicle: Klucel (hydroxypropylcellulose) (HPC)) 111 % of control; (dose: 1200.0 mg/kg/injection, schedule: Q04DX004 (ip), vehicle: Klucel (hydroxypropylcellulose) (HPC)) 108 % of control.

As for `COc1cccc(-n2cc[n+](C)c2/C=N/O)c1`, the T/C reads like this: (dose: 12.5 mg/kg/injection, schedule: Q04DX004 (ip), vehicle: saline with Tween-80) 108 % of control; (dose: 25.0 mg/kg/injection, schedule: Q04DX004 (ip), vehicle: saline with Tween-80) 101 % of control; under setting [3], 108 % of control; under setting [4], 100 % of control.

Turning to `Nc1cc(=O)n(Cc2ccco2)c(=S)[nH]1`, the T/C was 106 % of control under setting [3]; 97 % of control under setting [4]; 106 % of control under setting [5]; 107 % of control (dose: 400.0 mg/kg/injection, schedule: Q04DX004 (ip), vehicle: saline with Tween-80); 97 % of control (dose: 800.0 mg/kg/injection, schedule: Q04DX004 (ip), vehicle: saline with Tween-80).

`NC(C(=O)O)C1=CCCCCC1` (stereo unspecified): the T/C reads like this: (dose: 16.25 mg/kg/injection, schedule: Q04DX004 (ip), vehicle: Klucel (hydroxypropylcellulose) (HPC)) 100 % of control; (dose: 32.5 mg/kg/injection, schedule: Q04DX004 (ip), vehicle: Klucel (hydroxypropylcellulose) (HPC)) 111 % of control; (dose: 65.0 mg/kg/injection, schedule: Q04DX004 (ip), vehicle: Klucel (hydroxypropylcellulose) (HPC)) 104 % of control; (dose: 130.0 mg/kg/injection, schedule: Q04DX004 (ip), vehicle: Klucel (hydroxypropylcellulose) (HPC)) 95 % of control; (dose: 260.0 mg/kg/injection, schedule: Q04DX004 (ip), vehicle: Klucel (hydroxypropylcellulose) (HPC)) 100 % of control.

In the case of `COc1c2c(c(O)c3c4c(c(C)cc13)C1OC3(C(OC)OC5CC(C)(O)C(OC6CC(C)(O)C(O)C(C)O6)C(C)O5)OC1C(OC)(O4)C31CO1)C(=O)C(O)CC2OC1CC(C)(O)C(OC(C)=O)C(C)O1` (stereo unspecified), the T/C is 120 % of control (dose: 0.03 mg/kg/injection, schedule: Q04DX004 (ip), vehicle: saline); 105 % of control (dose: 15.0 micrograms/kg/injection, schedule: Q04DX004 (ip), vehicle: saline); 115 % of control (dose: 30.0 micrograms/kg/injection, schedule: Q04DX004 (ip), vehicle: saline); 111 % of control and 118 % of control (dose: 60.0 micrograms/kg/injection, schedule: Q04DX004 (ip), vehicle: saline); 114 % of control (dose: 120.0 micrograms/kg/injection, schedule: Q04DX004 (ip), vehicle: saline); 115 % of control (dose: 240.0 micrograms/kg/injection, schedule: Q04DX004 (ip), vehicle: saline).

For `O=S1(=O)CS(=O)(=O)OCCO1`, the T/C was 160 % of control (dose: 6.25 mg/kg/injection, schedule: Q01DX009 (oral), vehicle: Klucel (hydroxypropylcellulose) (HPC)); 165 % of control (dose: 6.25 mg/kg/injection, schedule: Q04DX004 (ip), vehicle: Klucel (hydroxypropylcellulose) (HPC)); 109 % of control (dose: 12.5 mg/kg/injection, schedule: Q01DX001 (oral), vehicle: Klucel (hydroxypropylcellulose) (HPC)); 192 % of control (dose: 12.5 mg/kg/injection, schedule: Q01DX009 (oral), vehicle: Klucel (hydroxypropylcellulose) (HPC)); 180 % of control (dose: 12.5 mg/kg/injection, schedule: Q04DX004 (ip), vehicle: Klucel (hydroxypropylcellulose) (HPC)); 300 % of control (dose: 25.0 mg/kg/injection, schedule: Q01DX009 (oral), vehicle: Klucel (hydroxypropylcellulose) (HPC)). Also, the T/C under setting [1] is 267 % of control and 290 % of control; the T/C (dose: 50.0 mg/kg/injection, schedule: Q01DX009 (oral), vehicle: Klucel (hydroxypropylcellulose) (HPC)) is 300 % of control; the T/C under setting [2] is 267 % of control and 300 % of control; the T/C (dose: 100.0 mg/kg/injection, schedule: Q01DX001 (oral), vehicle: Klucel (hydroxypropylcellulose) (HPC)) was 300 % of control.

Consider `c1ccc(OCC2CO2)c(OCC2CO2)c1` (stereo unspecified), for which the T/C reads like this: under setting [3], 111 % of control and 121 % of control; under setting [4], 118 % of control and 123 % of control; under setting [5], 156 % of control and 173 % of control.

As for `COc1ccc(CNC(=O)C2C(=O)C(=O)N(Cc3ccc(OC)c(OC)c3)C2=O)cc1OC` (stereo unspecified), the T/C is 95 % of control (dose: 28.13 mg/kg/injection, schedule: Q04DX004 (ip), vehicle: Klucel (hydroxypropylcellulose) (HPC)); 100 % of control (dose: 56.25 mg/kg/injection, schedule: Q04DX004 (ip), vehicle: Klucel (hydroxypropylcellulose) (HPC)); 97 % of control (dose: 112.5 mg/kg/injection, schedule: Q04DX004 (ip), vehicle: Klucel (hydroxypropylcellulose) (HPC)); 94 % of control (dose: 225.0 mg/kg/injection, schedule: Q04DX004 (ip), vehicle: Klucel (hydroxypropylcellulose) (HPC)); 92 % of control (dose: 450.0 mg/kg/injection, schedule: Q04DX004 (ip), vehicle: Klucel (hydroxypropylcellulose) (HPC)).

As to `O=S(=O)(O)O`, the T/C was 103 % of control (dose: 30.0 mg/kg/injection, schedule: Q01DX009 (ip), vehicle: water) and 96 % of control (dose: 44.0 mg/kg/injection, schedule: Q01DX009 (ip), vehicle: water).

Turning to `CCC/C=C/C=C/C(=O)OC1/C(=C/C(=O)OC)CC2CC(C(C)O)OC(=O)CC(O)CC3CC(OC(C)=O)C(C)(C)C(O)(CC4C/C(=C/C(=O)OC)CC(/C=C/C(C)(C)C1(O)O2)O4)O3` (stereo unspecified), the T/C runs as follows: (dose: 10.0 micrograms/kg/injection, schedule: Q01DX009 (ip), vehicle: saline) 102 % of control; (dose: 20.0 micrograms/kg/injection, schedule: Q01DX009 (ip), vehicle: saline) 104 % of control; (dose: 40.0 micrograms/kg/injection, schedule: Q01DX009 (ip), vehicle: saline) 107 % of control; (dose: 80.0 micrograms/kg/injection, schedule: Q01DX009 (ip), vehicle: saline) 109 % of control.

Consider `CO[C@@]12[C@@H]3N[C@@H]3CN1C1=C(C(=O)C(NCC3CCCO3)=C(C)C1=O)[C@@H]2COC(N)=O` (stereo partly specified), for which the T/C (dose: 1.5 mg/kg/injection, schedule: Q04DX004 (ip), vehicle: distilled water + Tween-80) was 117 % of control; the T/C (dose: 3.0 mg/kg/injection, schedule: Q04DX004 (ip), vehicle: distilled water + Tween-80) was 118 % of control; the T/C (dose: 12.0 mg/kg/injection, schedule: Q04DX004 (ip), vehicle: distilled water + Tween-80) was 160 % of control; the T/C (dose: 24.0 mg/kg/injection, schedule: Q04DX004 (ip), vehicle: distilled water + Tween-80) was 191 % of control.
